Laboratory results from patent US11180504B2 (ORCHID PHARMA LTD., priority 2016, dated 2021).
Converted amounts (≈) assume the structure as drawn.

Key:
[1] = system: carbapenem sensitive Escherichia coli; assay: MIC by broth micro-dilution (CLSI), carbapenem sensitive E. coli; assay type: cell-based; conditions: Escherichia coli, ATCC25922, ESBL −ve E. coli ATCC25922; read-out: MIC
[2] = system: carbapenem sensitive Pseudomonas aeruginosa; assay: MIC by broth micro-dilution (CLSI), carbapenem sensitive P. aeruginosa; assay type: cell-based; conditions: Pseudomonas aeruginosa, ATCC27853, Meropenem susceptible P. aeruginosa ATCC27853; read-out: MIC
[3] = system: methicillin-sensitive Staphylococcus aureus; assay: MIC by broth micro-dilution (CLSI), methicillin-sensitive S. aureus; assay type: cell-based; conditions: Staphylococcus aureus, ATCC 29213 / MSSA, MSSA S. aureus ATCC29213; read-out: MIC
[4] = system: extended spectrum β lactamase (ESBL) SHV18 producing Klebsiella pneumoniae; assay: MIC by broth micro-dilution (CLSI), ESBL SHV18 producing K. pneumoniae; assay type: cell-based; conditions: Klebsiella pneumoniae, ATCC700603, 22 h, ESBL +ve (SHV-18) K. pneumoniae ATCC700603; read-out: MIC
[5] = system: carbapenemase producing K. pneumoniae; assay: MIC by broth micro-dilution (CLSI), carbapenemase producing K. pneumoniae; assay type: cell-based, Klebsiella pneumoniae; conditions: Klebsiella pneumoniae, ATCCBAA1705, KPC-2 K. pneumoniae ATCC BAA-1705; read-out: MIC

| Structure (SMILES) | MIC [1] [µg/mL] | MIC [2] [µg/mL] | MIC [3] [µg/mL] | MIC [4] [µg/mL] | MIC [5] [µg/mL] |
| --- | --- | --- | --- | --- | --- |
| C[C@@H](NC(=O)C(F)F)[C@H]1C(=O)N2C(C(=O)O)=C(S[C@@H]3CN[C@H](CNS(C)(=O)=O)C3)[C@H](C)[C@H]12 [Example 85] | 0.5 (≈ 1.01 µM) | 64 (≈ 129 µM) | 1 (≈ 2.01 µM) | 2 (≈ 4.03 µM) | 2 (≈ 4.03 µM) |
| C[C@@H](NC(=O)C(F)F)[C@H]1C(=O)N2C(C(=O)O)=C(S[C@@H]3CN[C@H](C(=O)N(C)CCC(=O)N4CCCNCC4)C3)[C@H](C)[C@H]12 [Example 174] | 2 (≈ 3.33 µM) | 32 (≈ 53.3 µM) | 4 (≈ 6.66 µM) | 16 (≈ 26.6 µM) | 8 (≈ 13.3 µM) |
| C[C@@H](NS(=O)(=O)C(F)(F)F)[C@H]1C(=O)N2C(C(=O)O)=C(S[C@@H]3CN[C@H](C(=O)N4CCC(O)CC4)C3)[C@H](C)[C@H]12 [Example 30] | 1 (≈ 1.75 µM) | 128 (≈ 224 µM) | 2 (≈ 3.51 µM) | 8 (≈ 14 µM) | 8 (≈ 14 µM) |
| CC(=O)OCC(=O)N[C@H](C)[C@H]1C(=O)N2C(C(=O)O)=C(S[C@@H]3CN[C@H](C(=O)N(C)C)C3)[C@H](C)[C@H]12 [Example 26] | 1 (≈ 2.07 µM) | 128 (≈ 265 µM) | 4 (≈ 8.29 µM) | 4 to 8 (≈ 8.29 to 16.6 µM) | 8 (≈ 16.6 µM) |
| C[C@@H](NC(=O)C(F)F)[C@H]1C(=O)N2C(C(=O)O)=C(S[C@@H]3CNC(C[N+]4(C)CCCC4)C3)[C@H](C)[C@H]12 (stereo partly shown) [Example 80] | 4 | > 128 | 4 | 32 | 64 |
| C[C@@H](NC(=O)C1(C(F)(F)F)CC1)[C@H]1C(=O)N2C(C(=O)O)=C(S[C@@H]3CN[C@H](C(=O)N(C)C)C3)[C@H](C)[C@H]12 [Example 17] | 16 (≈ 30.9 µM) | 128 (≈ 247 µM) | 4 (≈ 7.71 µM) | > 128 | 32 (≈ 61.7 µM) |
| CNCC(=O)N[C@H](C)[C@H]1C(=O)N2C(C(=O)O)=C(S[C@@H]3CN[C@H](C(=O)N4CC[N+](C)(CCN)CC4)C3)[C@H](C)[C@H]12 [Example 222] | 2 | 8 | 64 | 8 | 4 |
| CC(C)C[C@@H](N)C(=O)N[C@H](C)[C@H]1C(=O)N2C(C(=O)O)=C(S[C@@H]3CN[C@H](C(=O)N(C)C)C3)[C@H](C)[C@H]12 [Example 113] | 4 (≈ 8.07 µM) | > 128 | 16 (≈ 32.3 µM) | 32 (≈ 64.6 µM) | 16 (≈ 32.3 µM) |
| C[C@@H](NC(=O)C(F)F)[C@H]1C(=O)N2C(C(=O)O)=C(S[C@@H]3CN[C@H](C(=O)N4CC(N)C4)C3)[C@H](C)[C@H]12 [Example 131] | 0.5 (≈ 1.03 µM) | 16 (≈ 32.8 µM) | 4 (≈ 8.2 µM) | 2 (≈ 4.1 µM) | 8 (≈ 16.4 µM) |
| C[C@@H](NC(=O)C(F)F)[C@H]1C(=O)N2C(C(=O)O)=C(S[C@@H]3CN[C@H](C(=O)N4CCC[C@H](N)C4)C3)[C@H](C)[C@H]12 [Example 122] | 1 (≈ 1.94 µM) | 16 (≈ 31 µM) | 1 (≈ 1.94 µM) | 4 (≈ 7.76 µM) | 4 (≈ 7.76 µM) |
| CC(F)C(=O)N[C@H](C)[C@H]1C(=O)N2C(C(=O)O)=C(S[C@@H]3CN[C@H](C(=O)N(C)C)C3)[C@H](C)[C@H]12 (mixture of isomers) [Example 84] | 1 | 128 | 4 | 4 | 16 |
| CN[C@H]1CCN(C(=O)[C@@H]2C[C@H](SC3=C(C(=O)O)N4C(=O)[C@H]([C@@H](C)NC(=O)C(F)F)[C@H]4[C@H]3C)CN2)C1 [Example 106] | 1 (≈ 1.94 µM) | 4 (≈ 7.76 µM) | 4 (≈ 7.76 µM) | 4 (≈ 7.76 µM) | 4 (≈ 7.76 µM) |
| CNCC(=O)N[C@H](C)[C@H]1C(=O)N2C(C(=O)O)=C(S[C@@H]3CN[C@H](C(=O)N4CC[C@H](n5cc(CN)nn5)C4)C3)[C@H](C)[C@H]12 [Example 178] | 2 (≈ 3.47 µM) | 4 (≈ 6.95 µM) | 32 (≈ 55.6 µM) | 4 (≈ 6.95 µM) | 4 (≈ 6.95 µM) |
| CNCC(=O)N[C@H](C)[C@H]1C(=O)N2C(C(=O)O)=C(S[C@@H]3CN[C@H](C(=O)N4C[C@@H](N)C[C@H]4CN)C3)[C@H](C)[C@H]12 [Example 191] | 8 (≈ 15.3 µM) | 32 (≈ 61.1 µM) | 64 (≈ 122 µM) | 32 (≈ 61.1 µM) | 8 (≈ 15.3 µM) |
| CNCC(=O)N[C@H](C)[C@H]1C(=O)N2C(C(=O)O)=C(S[C@@H]3CN[C@H](C(=O)N4CC[C@@H](CN)C4)C3)[C@H](C)[C@H]12 [Example 220] | 1 (≈ 1.97 µM) | 2 (≈ 3.93 µM) | 32 (≈ 62.9 µM) | 2 (≈ 3.93 µM) | 2 (≈ 3.93 µM) |
| C[C@@H](NS(=O)(=O)C(F)(F)F)[C@H]1C(=O)N2C(C(=O)O)=C(S[C@@H]3CN[C@H](C(=O)N4CC[C@@H](N)C4)C3)[C@H](C)[C@H]12 [Example 204] | 8 (≈ 14.4 µM) | > 128 | 32 (≈ 57.6 µM) | > 128 | > 128 |
| C[C@@H](N)C(=O)N[C@H](C)[C@H]1C(=O)N2C(C(=O)O)=C(S[C@@H]3CN[C@H](C(=O)N(C)C)C3)[C@H](C)[C@H]12 [Example 59] | 2 (≈ 4.41 µM) | 32 (≈ 70.6 µM) | 32 (≈ 70.6 µM) | 16 (≈ 35.3 µM) | > 128 |
| CNCCC(=O)N[C@H](C)[C@H]1C(=O)N2C(C(=O)O)=C(S[C@@H]3CN[C@H](C(=O)N(C)C)C3)[C@H](C)[C@H]12 [Example 166] | 4 (≈ 8.55 µM) | 32 (≈ 68.4 µM) | 64 (≈ 137 µM) | 8 (≈ 17.1 µM) | 8 (≈ 17.1 µM) |
| C[C@@H](NC(=O)CS(C)(=O)=O)[C@H]1C(=O)N2C(C(=O)O)=C(S[C@@H]3CN[C@H](C(=O)N(C)C)C3)[C@H](C)[C@H]12 [Example 78] | 1 (≈ 1.99 µM) | 128 (≈ 255 µM) | 8 (≈ 15.9 µM) | 2 (≈ 3.98 µM) | > 128 |
| C[C@@H](NC(=O)C(F)F)[C@H]1C(=O)N2C(C(=O)O)=C(S[C@@H]3CN[C@H](C(=O)N4CC[N+](C)(C)CC4)C3)[C@H](C)[C@H]12 [Example 45] | 1 | 4 | 1 | 4 | 16 |
| C[C@@H](NC(=O)C(F)F)[C@H]1C(=O)N2C(C(=O)O)=C(Sc3nc(-c4cc[n+](C)cc4)cs3)[C@H](C)[C@H]12 [Example 94] | 64 | > 128 | 0.25 | > 128 | > 128 |
| C[C@@H](NS(C)(=O)=O)[C@H]1C(=O)N2C(C(=O)O)=C(S[C@@H]3CN[C@H](C(=O)N4CCOCC4)C3)[C@H](C)[C@H]12 [Example 27] | 0.5 (≈ 0.995 µM) | 64 to 128 (≈ 127 to 255 µM) | 16 (≈ 31.8 µM) | 1 (≈ 1.99 µM) | 4 (≈ 7.96 µM) |
| C[C@@H](NC(=O)C(F)F)[C@H]1C(=O)N2C(C(=O)O)=C(S[C@@H]3CN[C@H](C(=O)N4CC[C@H](NCC(N)=O)C4)C3)[C@H](C)[C@H]12 [Example 153] | 1 (≈ 1.79 µM) | 64 (≈ 115 µM) | 8 (≈ 14.3 µM) | 2 (≈ 3.58 µM) | 8 (≈ 14.3 µM) |
| C[C@@H](NC(=O)[C@@H]1CCCN1)[C@H]1C(=O)N2C(C(=O)O)=C(S[C@@H]3CN[C@H](C(=O)N4CC[C@@H](N)C4)C3)[C@H](C)[C@H]12 [Example 205] | 1 (≈ 1.92 µM) | 8 (≈ 15.4 µM) | 32 (≈ 61.5 µM) | 2 (≈ 3.84 µM) | 4 (≈ 7.68 µM) |
| CNCC(=O)N[C@H](C)[C@H]1C(=O)N2C(C(=O)O)=C(S[C@@H]3CN[C@H](C(=O)N4CC[C@@H](F)C4)C3)[C@H](C)[C@H]12 [Example 215] | 2 (≈ 4.02 µM) | > 128 | 8 (≈ 16.1 µM) | 32 (≈ 64.3 µM) | 8 (≈ 16.1 µM) |
| CNCC(=O)N[C@H](C)[C@H]1C(=O)N2C(C(=O)O)=C(S[C@@H]3CN[C@H](C(=O)N4C[C@@H](N)C[C@H]4CNS(N)(=O)=O)C3)[C@H](C)[C@H]12 [Example 216] | 1 (≈ 1.66 µM) | 4 (≈ 6.64 µM) | 32 (≈ 53.1 µM) | 16 (≈ 26.5 µM) | 4 (≈ 6.64 µM) |
